Experiments:
ragweed = test: Test A pre-/postemergence herbicide test; assay type: in vivo, Ambrosia elatior; settings: for Plant response rating, Ragweed: 0 to 100 scale
How it was run: (§1)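 Scoring was visual, relative to untreated controls, on a 0–100 scale after about 10 greenhouse days. Preemergence treatment used a directed soil spray over seeded loam/sand; postemergence treatment targeted one- to two-leaf plants of 2–10 cm.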

blackgrass = test: Test A postemergence herbicide test; assay type: in vivo, Alopecurus myosuroides
How it was run: (§2)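 Injury was rated visually about 10 days after treatment on a 0 (no effect) to 100 (complete control) scale, compared with untreated plants. Test chemicals were sprayed postemergence onto greenhouse plants 2–10 cm high at one to two leaves, grown in a loam–sand blend.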

barnyardgrass [1] = test: Test A pre-/postemergence herbicide test; assay type: in vivo, Echinochloa crus-galli
How it was run: as §1

wheat = test: Test A pre-/postemergence herbicide test; assay type: in vivo, Triticum aestivum; settings: Postemergence
How it was run: as §1

kochia = test: Test A pre-/postemergence herbicide test; assay type: in vivo, Kochia scoparia; settings: for Plant response rating, Kochia: 0 to 100 scale
How it was run: as §1

pigweed = test: Test A pre-/postemergence herbicide test; assay type: in vivo, Amaranthus retroflexus; settings: for Plant response rating, Pigweed: 0 to 100 scale
How it was run: as §1

giant foxtail = test: Test A pre-/postemergence herbicide test; assay type: in vivo, Setaria faberii; settings: for Plant response rating, Foxtail, Giant: 0 to 100 scale
How it was run: as §1

rice = test: Test B flooded paddy test; assay type: in vivo, Oryza sativa; settings: 500 g ai/ha, Flood; scale of 0 to 100 where 0 is no effect and 100 is complete control
How it was run: (§3)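 Treatment was made at the 2-leaf stage by dosing the standing floodwater, kept 3 cm above soil level for the whole test. Greenhouse exposure lasted 13 to 15 days. Response is a visual percent rating relative to controls, where a dash indicates no test result.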

sedge, umbrella = test: Test B flooded paddy test; assay type: in vivo, Cyperus difformis; settings: 500 g ai/ha, Flood; scale of 0 to 100 where 0 is no effect and 100 is complete control
How it was run: as §3

barnyardgrass [2] = test: Test B flooded paddy test; assay type: in vivo, Echinochloa crus-galli; settings: 500 g ai/ha, Flood; scale of 0 to 100 where 0 is no effect and 100 is complete control
How it was run: as §3

ducksalad = test: Test B flooded paddy test; assay type: in vivo, Heteranthera limosa; settings: 500 g ai/ha, Flood; scale of 0 to 100 where 0 is no effect and 100 is complete control
How it was run: as §3

galium = test: Test A postemergence herbicide test; assay type: in vivo, Galium aparine
How it was run: as §2

ryegrass, Italian = test: Test A pre-/postemergence herbicide test; assay type: in vivo, Lolium multiflorum; settings: for Plant response rating, Ryegrass, Italian: 0 to 100 scale
How it was run: as §1

corn = test: Test A pre-/postemergence herbicide test; assay type: in vivo, Zea mays; settings: Postemergence
How it was run: as §1

[3] = 125 g ai/ha, visual rating, 0 no effect, 100 complete control, approximately 10 days, preemergence
[4] = Postemergence, 125 g ai/ha, 0 no effect, 100 complete control
[5] = preemergence, 500 g ai/ha, 0 is no effect and 100 is complete control
[6] = 125 g ai/ha, 0 to 100 scale, 0 no effect, 100 complete control

Structure (SMILES): Cc1ccc(C2CNC(=O)C2C(=O)Nc2ccccc2Cl)cc1 (racemic) [Compound 152]
- Plant response rating, Ragweed (ragweed; [3]): 50
- Plant response rating, Ragweed (ragweed; [4]): 40
- Ragweed plant response rating (0 to 100 scale, 0 is no effect, 100 is complete control) (ragweed; Postemergence, 500 g ai/ha): 50
- Plant response rating, Ragweed (ragweed; [5]): 70
- Plant response rating, Blackgrass (blackgrass; [6]): 0
- Blackgrass plant response rating (0 to 100 scale, 0 is no effect, 100 is complete control) (blackgrass; 500 g ai/ha): 50
- Plant response rating, Barnyardgrass (barnyardgrass [1]; 125 g ai/ha, visual rating, 0 to 100 scale, 0 no effect, 100 complete control, approximately 10 days, preemergence): 90
- Plant response rating, Barnyardgrass (barnyardgrass [1]; Postemergence, 125 g ai/ha, 0 to 100 scale, 0 no effect, 100 complete control): 70
- Barnyardgrass plant response rating (0 to 100 scale, 0 is no effect, 100 is complete control) (barnyardgrass [1]; Postemergence, 500 g ai/ha): 80
- Plant response rating, Barnyardgrass (barnyardgrass [1]; preemergence, 500 g ai/ha, 0 to 100 scale (0 no effect, 100 complete control)): 90
- Plant response rating, Wheat (wheat; [6]): 0
- Wheat plant response rating (0 to 100 scale, 0 is no effect, 100 is complete control) (wheat; 500 g ai/ha): 0
- Plant response rating, Kochia (kochia; [3]): 30
- Plant response rating, Kochia (kochia; [4]): 50
- Kochia plant response rating (0 to 100 scale, 0 is no effect, 100 is complete control) (kochia; Postemergence, 500 g ai/ha): 60
- Plant response rating, Kochia (kochia; [5]): 60
- Plant response rating, Pigweed (pigweed; [3]): 0
- Plant response rating, Pigweed (pigweed; [4]): 0
- Pigweed plant response rating (0 to 100 scale, 0 is no effect, 100 is complete control) (pigweed; Postemergence, 500 g ai/ha): 20
- Plant response rating, Pigweed (pigweed; [5]): 10
- Plant response rating, Foxtail, Giant (giant foxtail; [3]): 70
- Plant response rating, Foxtail, Giant (giant foxtail; [4]): 50
- Foxtail, Giant plant response rating (0 to 100 scale, 0 is no effect, 100 is complete control) (giant foxtail; Postemergence, 500 g ai/ha): 60
- Plant response rating, Foxtail, Giant (giant foxtail; preemergence, 500 g ai/ha): 90
- Plant response rating, Rice (rice): 15
- Plant response rating, Sedge, Umbrella (sedge, umbrella): 0
- Plant response rating, Barnyardgrass (barnyardgrass [2]): 60
- Plant response rating, Ducksalad (ducksalad): 100
- Plant response rating, Galium (galium; [6]): 60
- Galium plant response rating (0 to 100 scale, 0 is no effect, 100 is complete control) (galium; 500 g ai/ha): 70
- Plant response rating, Ryegrass, Italian (ryegrass, Italian; [3]): 0
- Plant response rating, Ryegrass, Italian (ryegrass, Italian; [4]): 10
- Ryegrass, Italian plant response rating (0 to 100 scale, 0 is no effect, 100 is complete control) (ryegrass, Italian; Postemergence, 500 g ai/ha): 50
- Plant response rating, Ryegrass, Italian (ryegrass, Italian; [5]): 30
- Plant response rating, Corn (corn; [6]): 0
- Corn plant response rating (0 to 100 scale, 0 is no effect, 100 is complete control) (corn; 500 g ai/ha): 0

— patent publication US10294202B2, “Pyrrolidinones as herbicides” (FMC Corporation, priority 2013, dated 2019)
